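These data come from cells grown in 96-well plates and exposed to compound for 48 hours at five concentrations. GI50: concentration for 50% inhibition of growth. TGI marks complete inhibition of growth.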 A value given as a limit tells only on which side of the number the result lay.

Test systems include A549 NSCLC; CAKI-1 renal; HT29 colon; LOX IMVI melanoma; MDA-MB-435; RXF 393 renal; SF-539 CNS; SNB-75 CNS; UACC-257 melanoma; UACC-62 melanoma.
Holding throughout (assay): DTP human tumour cell line panel, 48 h

Consider `O=C([O-])CC(=O)[O-].[NH-][C@@H]1CCCC[C@H]1[NH-].[Pt+4]`, for which the GI50 with A549 NSCLC is 11.1 µM; in the assay on CAKI-1 renal, 3.53 µM; in the assay with HT29 colon, 6.13 µM; in the assay with LOX IMVI melanoma it was 15 µM; in the assay on MDA-MB-435, 15.5 µM; in the assay on RXF 393 renal, above 79 µM. Further, the GI50 in the assay with SF-539 CNS was 46.8 µM; with SNB-75 CNS, above 35.9 µM; with UACC-257 melanoma, above 89 µM; in the assay on UACC-62 melanoma, 20.2 µM. The TGI in the assay on A549 NSCLC, with CAKI-1 renal, in the assay on HT29 colon, in the assay on LOX IMVI melanoma, with MDA-MB-435 and in the assay with RXF 393 renal was above 100 µM each time. Further, the TGI with SF-539 CNS, with SNB-75 CNS, in the assay with UACC-257 melanoma and in the assay on UACC-62 melanoma was above 100 µM each time.

With `O=C(O)c1ccc(SSc2ccc(C(=O)O)cn2)nc1`, the TGI with A549 NSCLC, in the assay on CAKI-1 renal, with HT29 colon, in the assay on LOX IMVI melanoma, in the assay on MDA-MB-435 and in the assay with RXF 393 renal was above 100 µM each time. For the same molecule, the TGI with SF-539 CNS, in the assay on SNB-75 CNS, with UACC-257 melanoma and with UACC-62 melanoma was above 100 µM each time.

`CC(C)(C)OC(=O)Nc1ccc2c(c1)C(NC(=O)Nc1cccc(C#N)c1)CC(C)(C)O2` (stereo not given): the GI50 in the assay on A549 NSCLC was 2.9 µM; with CAKI-1 renal, 2.49 µM; with HT29 colon it was 6.71 µM; in the assay with LOX IMVI melanoma, 1.53 µM; in the assay on MDA-MB-435 it was 1.44 µM; with RXF 393 renal, 5.89 µM. In addition, the GI50 in the assay on SF-539 CNS is 5.19 µM; in the assay on SNB-75 CNS, 7.01 µM; in the assay with UACC-257 melanoma it was 1.07 µM; in the assay on UACC-62 melanoma it was 0.834 µM. Besides, the TGI in the assay on A549 NSCLC was above 100 µM; in the assay on CAKI-1 renal, above 42.6 µM; with HT29 colon, above 100 µM; in the assay with LOX IMVI melanoma, above 60.5 µM; in the assay with MDA-MB-435, 15.2 µM; in the assay with RXF 393 renal, 70.2 µM. In addition, the concentration for total growth inhibition (TGI) was 44.1 µM in the assay on SF-539 CNS, above 100 µM with SNB-75 CNS, 6.93 µM in the assay on UACC-257 melanoma and 17 µM with UACC-62 melanoma.

Turning to `CCOC(=O)/C=C/c1cccc(F)c1`, the TGI with A549 NSCLC, in the assay on CAKI-1 renal, in the assay with HT29 colon, in the assay with LOX IMVI melanoma, with MDA-MB-435 and in the assay with RXF 393 renal was above 100 µM each time. Moreover, the TGI in the assay with SF-539 CNS, with SNB-75 CNS, in the assay with UACC-257 melanoma and with UACC-62 melanoma was above 100 µM throughout.

For the molecule `Nc1cccc2c1C(=O)c1cccc(NC(=O)c3ccccc3)c1C2=O`, the GI50 with A549 NSCLC was 0.677 µM; with CAKI-1 renal it was 0.229 µM; with HT29 colon it was 0.291 µM; with LOX IMVI melanoma, 0.565 µM; in the assay with MDA-MB-435, 0.0364 µM; in the assay with RXF 393 renal, 0.363 µM. The GI50 in the assay on SF-539 CNS is 0.292 µM; in the assay with SNB-75 CNS, 0.28 µM; with UACC-257 melanoma, 0.614 µM; with UACC-62 melanoma it was 0.221 µM. The TGI in the assay on A549 NSCLC was 4.66 µM; in the assay with CAKI-1 renal, 3.01 µM; in the assay with HT29 colon, 2.67 µM; in the assay with LOX IMVI melanoma, above 100 µM; in the assay with MDA-MB-435 it was 0.414 µM; with RXF 393 renal, 2.95 µM. Further, the TGI was 13 µM in the assay on SF-539 CNS, 3.88 µM in the assay with SNB-75 CNS, 64.8 µM with UACC-257 melanoma and 14 µM with UACC-62 melanoma.

On to `COc1c(N2CCN(CN3C(=O)C(=Nc4ccc(S(=O)(=O)Nc5ncccn5)cc4)c4cc(Cl)ccc43)C(C)C2)c(F)cc2c(=O)c(C(=O)O)cn(C3CC3)c12` (stereo not given), for which the GI50 was 18.5 µM with A549 NSCLC; 14 µM with CAKI-1 renal; 7.76 µM in the assay with HT29 colon; 12.8 µM with LOX IMVI melanoma; 10.3 µM in the assay with MDA-MB-435; 8.3 µM in the assay on RXF 393 renal. Moreover, the GI50 with SF-539 CNS was 15.4 µM; with SNB-75 CNS it was 19.1 µM; with UACC-257 melanoma it was 6.77 µM; with UACC-62 melanoma, 13.7 µM. In addition, the TGI is above 50 µM in the assay with A549 NSCLC; 42.2 µM in the assay with CAKI-1 renal; above 50 µM with HT29 colon; above 50 µM with LOX IMVI melanoma; 21.1 µM in the assay on MDA-MB-435; above 50 µM with RXF 393 renal. Besides, the TGI in the assay on SF-539 CNS was 40.9 µM; in the assay on SNB-75 CNS it was above 50 µM; with UACC-257 melanoma, 17.7 µM; in the assay with UACC-62 melanoma it was 49.9 µM.

With `CC1=NOC(=O)/C1=C/c1ccc2c(c1)OCO2`, the concentration for total growth inhibition (TGI) in the assay on A549 NSCLC was above 100 µM; in the assay with CAKI-1 renal, 36.4 µM; in the assay with HT29 colon, 57.3 µM; with LOX IMVI melanoma it was 36.1 µM; in the assay with MDA-MB-435, 56.6 µM; with RXF 393 renal it was 30.7 µM. The TGI with SF-539 CNS was 64.9 µM; in the assay on SNB-75 CNS it was 57.5 µM; with UACC-257 melanoma, above 100 µM; in the assay on UACC-62 melanoma, 43.5 µM.

One may read the GI50 as the concentration giving 50% growth inhibition. A word on the TGI: it is the concentration giving total growth inhibition.
